# Measurements published in PMC9787790, “Functional Characterization of Novel Bony Fish Lipoxygenase Isoforms and Their Possible Involvement in Inflammation” (International Journal of Molecular Sciences, 2022).
# Assays:
# [1] = biological target: T1, ALOX-isoform of N. furzeri (putative ALOX15 ortholog) (Nothobranchius furzeri, UniProt A0A1A7ZHE9); assay: lysate supernatant oxygenation assay, RP-HPLC / NP-HPLC of products; format: biochemical; details: 100 µM AA; 3 min; products after reduction 12-HETE (major) and 8-HETE
# T1 construct: gene ALOX12; cell lysate supernatant used (activity lost on purification)
# T1 sequence (A0A1A7ZHE9 1-670): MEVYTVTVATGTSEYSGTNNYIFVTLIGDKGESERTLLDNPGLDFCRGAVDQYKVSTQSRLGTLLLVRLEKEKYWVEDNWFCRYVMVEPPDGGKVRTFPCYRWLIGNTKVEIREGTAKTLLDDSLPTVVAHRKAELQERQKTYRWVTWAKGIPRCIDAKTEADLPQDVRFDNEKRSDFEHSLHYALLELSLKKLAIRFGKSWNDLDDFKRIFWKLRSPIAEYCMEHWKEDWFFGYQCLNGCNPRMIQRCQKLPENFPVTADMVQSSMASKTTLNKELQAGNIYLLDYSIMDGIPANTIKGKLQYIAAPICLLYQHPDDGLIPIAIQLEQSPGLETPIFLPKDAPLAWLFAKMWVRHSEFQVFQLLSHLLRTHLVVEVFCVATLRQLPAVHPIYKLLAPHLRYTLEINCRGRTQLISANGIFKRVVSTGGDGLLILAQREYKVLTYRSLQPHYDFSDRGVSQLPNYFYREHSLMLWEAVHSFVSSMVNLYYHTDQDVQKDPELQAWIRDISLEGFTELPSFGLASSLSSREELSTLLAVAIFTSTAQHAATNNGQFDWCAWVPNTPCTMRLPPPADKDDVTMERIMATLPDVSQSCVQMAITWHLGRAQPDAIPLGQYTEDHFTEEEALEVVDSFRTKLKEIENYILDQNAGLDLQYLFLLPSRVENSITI
# [2] = biological target: T2, ALOX-isoform of P. nyererei (putative ALOX15 ortholog) (Pundamilia nyererei, UniProt A0A3B4GKQ4); assay: as above; format: biochemical; details: 100 µM AA; 3 min; products after reduction 12-HETE (major) and 8-HETE
# T2 construct: gene alox12; cell lysate supernatant used (activity lost on purification)
# T2 sequence (A0A3B4GKQ4 1-670): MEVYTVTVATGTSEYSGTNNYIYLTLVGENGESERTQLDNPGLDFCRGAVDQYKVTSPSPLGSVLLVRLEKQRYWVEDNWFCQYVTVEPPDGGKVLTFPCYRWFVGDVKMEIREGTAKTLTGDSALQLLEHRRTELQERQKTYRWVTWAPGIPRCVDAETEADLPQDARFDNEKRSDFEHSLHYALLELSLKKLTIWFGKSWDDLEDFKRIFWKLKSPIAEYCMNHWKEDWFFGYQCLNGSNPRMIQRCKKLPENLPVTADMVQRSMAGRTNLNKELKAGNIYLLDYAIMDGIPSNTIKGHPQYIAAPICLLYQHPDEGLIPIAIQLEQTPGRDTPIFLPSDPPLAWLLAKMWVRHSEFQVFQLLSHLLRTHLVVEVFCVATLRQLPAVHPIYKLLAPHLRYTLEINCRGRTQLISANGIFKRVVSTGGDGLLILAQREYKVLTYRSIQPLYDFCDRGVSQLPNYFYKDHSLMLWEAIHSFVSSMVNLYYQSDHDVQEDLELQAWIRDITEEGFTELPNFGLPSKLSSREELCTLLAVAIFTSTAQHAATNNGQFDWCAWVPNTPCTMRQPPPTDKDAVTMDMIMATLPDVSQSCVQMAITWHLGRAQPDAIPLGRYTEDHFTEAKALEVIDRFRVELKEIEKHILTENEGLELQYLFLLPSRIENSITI
structure (smiles),measurement,setting,value
"CCCCC/C=C\C/C=C\C/C=C\C/C=C\CCCC(=O)O [AA, arachidonic acid]","lysate supernatant oxygenation assay, RP-HPLC / NP-HPLC of products",[1],AA is oxygenated by the three bony fish ALOX-isoforms to a mixture of 12-HETE
same,"lysate supernatant oxygenation assay, RP-HPLC / NP-HPLC of products",[2],AA is oxygenated by the three bony fish ALOX-isoforms to a mixture of 12-HETE
